A word on the pIC50: it is the IC50 on a negative log10 scale, so that one unit is a factor of ten.

pIC50: −log10 of the molar value.

From patent US20250122174A1 (Shenzhen Yuanli Shenwan Innovative Medicine Co., Ltd., priority 2022, published 2025) come the findings set out here.

In the assay the target is HPK1 (Homo sapiens (Human), UniProt Q92918). In words: HPK1 Inhibition Assay (ADP-Glo kinase assay). In kind it is biochemical. As to conditions: ATP 10 μM. The procedure, abridged: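 ADP-Glo luminescence read-out after 1 h room-temperature kinase reaction with 10 μM ATP and 0.1 μg/ml MBP. Recombinant human HPK1 at 7.5 ng/μl; buffer 40 mM Tris pH 7.5, 20 mM MgCl2. Compounds serially diluted 5-fold over 10 points from 10 mM DMSO stock.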
Chain of HPK1 (Q92918 1-346 limits assumed): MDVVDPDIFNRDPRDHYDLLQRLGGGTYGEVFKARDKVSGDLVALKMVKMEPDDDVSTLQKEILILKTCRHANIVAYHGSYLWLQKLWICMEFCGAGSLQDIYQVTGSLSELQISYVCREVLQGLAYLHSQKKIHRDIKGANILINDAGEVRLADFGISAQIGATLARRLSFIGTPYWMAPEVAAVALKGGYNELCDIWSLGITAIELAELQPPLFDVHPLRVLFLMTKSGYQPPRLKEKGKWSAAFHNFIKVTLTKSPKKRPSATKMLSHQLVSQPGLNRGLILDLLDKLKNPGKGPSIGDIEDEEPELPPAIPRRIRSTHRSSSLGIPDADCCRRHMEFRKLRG
In general terms: ADP-Glo first removes unused ATP, then detects ADP through luciferase.
With `CC(C)n1nc(F)c2c(N3C[C@H](N)C4(CC4)C3)c(NC(=O)c3ccc(=O)n(-c4c(F)cccc4F)n3)ccc21` [Example 199, (R)-N-(4-(7-amino-5-azaspiro[2.4]heptan-5-yl)-3-fluoro-1-isopropyl-1H-indazol-5-yl)-1-(2,6-difluorophenyl)-6-oxo-1,6-dihydropyridazine-3-carboxamide], the pIC50 is 6.00 to 7.00.
With `CO[C@@H]1CN(c2c(NC(=O)c3ccc(=O)n(-c4c(F)cccc4F)n3)ccc3c2cnn3C(C)C)C[C@H]1N` [Example 201, N-(4-((35,4S)-3-amino-4-methoxypyrrolidin-1-yl)-1-isopropyl-1H-indazol-5-yl)-1-(2,6-difluorophenyl)-6-oxo-1,6-dihydropyridazine-3-carboxamide], the pIC50 was > 7.00.
Consider `Cc1nn(C(C)C)c2ccc(NC(=O)c3ccc(=O)n(-c4c(F)cccc4F)n3)c(N3C[C@H](N)C4(CC4)C3)c12` [Example 202, (R)-N-(4-(7-amino-5-azaspiro[2.4]heptan-5-yl)-1-isopropyl-3-methyl-1H-indazol-5-yl)-1-(2,6-difluorophenyl)-6-oxo-1,6-dihydropyridazine-3-carboxamide], for which the pIC50 was > 7.00.
The result for `CC[C@H]1CN(c2c(NC(=O)c3ccc(=O)n(-c4c(F)cccc4F)n3)cc(F)c3c2cnn3C(C)C)C[C@H]1N` [Example 203, N-(4-((35,4S)-3-amino-4-ethylpyrrolidin-1-yl)-7-fluoro-1-isopropyl-1H-indazol-5-yl)-1-(2,6-difluorophenyl)-6-oxo-1,6-dihydropyridazine-3-carboxamide] reads > 7.00; that for `CC(C)n1ncc2c(N3CC[C@@H](CN)C3)c(NC(=O)c3ccc(=O)n(-c4c(F)cccc4F)n3)cc(F)c21` [Example 204, (S)-N-(4-(3-(aminomethyl)pyrrolidin-1-yl)-7-fluoro-1-isopropyl-1H-indazol-5-yl)-1-(2,6-difluorophenyl)-6-oxo-1,6-dihydropyridazine-3-carboxamide], > 7.00; that for `CO[C@H]1CN(c2c(NC(=O)c3ccc(=O)n(-c4c(F)cccc4F)n3)ccc3c2cnn3C(C)C)C[C@H]1N` [Example 205, N-(4-((3R,4S)-3-amino-4-methoxypyrrolidin-1-yl)-1-isopropyl-1H-indazol-5-yl)-1-(2,6-difluorophenyl)-6-oxo-1,6-dihydropyridazine-3-carboxamide], > 7.00.
In the case of `CC(C)n1ncc2c(N3CC(N)C4(COC4)C3)c(NC(=O)c3ccc(=O)n(-c4c(F)cccc4F)n3)ccc21` (stereo not shown) [Example 206, N-(4-(8-amino-2-oxa-6-azaspiro[3.4]octan-6-yl)-1-isopropyl-1H-indazol-5-yl)-1-(2,6-difluorophenyl)-6-oxo-1,6-dihydropyridazine-3-carboxamide] it was > 7.00; in that of `CC(C)n1ncc2c(N3CC[C@H](N)C3)c(NC(=O)c3ccc(=O)n(-c4c(F)cccc4F)n3)ccc21` [Example 207, (S)-N-(4-(3-aminopyrrolidin-1-yl)-1-isopropyl-1H-indazol-5-yl)-1-(2,6-difluorophenyl)-6-oxo-1,6-dihydropyridazine-3-carboxamide], > 7.00; in that of `CC(C)n1ncc2c(N3CC[C@@](C)(N)C3)c(NC(=O)c3ccc(=O)n(-c4c(F)cccc4F)n3)ccc21` [Example 208, (R)-N-(4-(3-amino-3-methylpyrrolidin-1-yl)-1-isopropyl-1H-indazol-5-yl)-1-(2,6-difluorophenyl)-6-oxo-1,6-dihydropyridazine-3-carboxamide], > 7.00.
For the compound `CC(C)n1ncc2c(N3C[C@H](C)[C@@H](N)C3)c(NC(=O)c3ccc(=O)n(-c4c(F)cccc4F)n3)ccc21` [Example 209, N-(4-((3R,4S)-3-amino-4-methylpyrrolidin-1-yl)-1-isopropyl-1H-indazol-5-yl)-1-(2,6-difluorophenyl)-6-oxo-1,6-dihydropyridazine-3-carboxamide], the pIC50 was > 7.00.
In the case of `CC(C)n1ncc2c(N3C[C@@H]4[C@@H](N)[C@@H]4C3)c(NC(=O)c3ccc(=O)n(-c4c(F)cccc4F)n3)ccc21` [Example 211, N-(4-((1R,5S,6s)-6-amino-3-azabicyclo[3.1.0]hexan-3-yl)-1-isopropyl-1H-indazol-5-yl)-1-(2,6-difluorophenyl)-6-oxo-1,6-dihydropyridazine-3-carboxamide] it was > 7.00; in that of `CC(C)n1ncc2c(N3C[C@@H](N)C[C@H]3CO)c(NC(=O)c3ccc(=O)n(-c4c(F)cccc4F)n3)ccc21` [Example 212, N-(4-((25,4S)-4-amino-2-(hydroxymethyl)pyrrolidin-1-yl)-1-isopropyl-1H-indazol-5-yl)-1-(2,6-difluorophenyl)-6-oxo-1,6-dihydropyridazine-3-carboxamide], > 7.00.
In the case of `CC(C)n1ncc2c(N3CC[C@@H](NCCO)C3)c(NC(=O)c3ccc(=O)n(-c4c(F)cccc4F)n3)ccc21` [Example 213, (R)-1-(2,6-difluorophenyl)-N-(4-(3-((2-hydroxyethyl)amino)pyrrolidin-1-yl)-1-isopropyl-1H-indazol-5-yl)-6-oxo-1,6-dihydropyridazine-3-carboxamide] it was > 7.00.
In the case of `CC(C)n1ncc2c(N3C[C@@H](C)[C@@H](NCCO)C3)c(NC(=O)c3ccc(=O)n(-c4c(F)cccc4F)n3)ccc21` [Example 214, 1-(2,6-difluorophenyl)-N-(4-((3R,4R)-3-((2-hydroxyethyl)amino)-4-methylpyrrolidin-1-yl)-1-isopropyl-1H-indazol-5-yl)-6-oxo-1,6-dihydropyridazine-3-carboxamide] it was > 7.00; in that of `CC(C)n1ncc2c(N3C[C@@H](C)[C@@H](N)C3)c(NC(=O)c3ccc(=O)n(-c4ccccc4F)n3)ccc21` [Example 215, N-(4-((3R,4R)-3-amino-4-methylpyrrolidin-1-yl)-1-isopropyl-1H-indazol-5-yl)-1-(2-fluorophenyl)-6-oxo-1,6-dihydropyridazine-3-carboxamide], > 7.00.
Turning to `CC[C@@H]1CN(c2c(NC(=O)c3ccc(=O)n(-c4c(F)cccc4F)n3)cc(F)c3c2cnn3C(C)C)C[C@@H]1N` [Example 216, N-(4-((3R,4R)-3-amino-4-ethylpyrrolidin-1-yl)-7-fluoro-1-isopropyl-1H-indazol-5-yl)-1-(2,6-difluorophenyl)-6-oxo-1,6-dihydropyridazine-3-carboxamide], the pIC50 was > 7.00.
In the case of `CC(C)n1ncc2c(N3CCC(N)CC3)c(NC(=O)c3ccc(=O)n(-c4c(F)cccc4F)n3)cc(F)c21` [Example 217, N-(4-(4-aminopiperidin-1-yl)-7-fluoro-1-isopropyl-1H-indazol-5-yl)-1-(2,6-difluorophenyl)-6-oxo-1,6-dihydropyridazine-3-carboxamide] it was > 7.00; in that of `Cc1nn(C(C)C)c2c(F)cc(NC(=O)c3ccc(=O)n(-c4c(F)cccc4F)n3)c(N3C[C@@H](C)[C@@H](N)C3)c12` [Example 218, N-(4-((3R,4R)-3-amino-4-methylpyrrolidin-1-yl)-7-fluoro-1-isopropyl-3-methyl-1H-indazol-5-yl)-1-(2,6-difluorophenyl)-6-oxo-1,6-dihydropyridazine-3-carboxamide], > 7.00; in that of `CC(C)n1ncc2c(N3C[C@H]4CNC[C@H]4C3)c(NC(=O)c3ccc(=O)n(-c4c(F)cccc4F)n3)cc(F)c21` [Example 219, 1-(2,6-difluorophenyl)-N-(7-fluoro-4-((3aR,6aS)-hexahydropyrrolo[3,4-c]pyrrol-2(1H)-yl)-1-isopropyl-1H-indazol-5-yl)-6-oxo-1,6-dihydropyridazine-3-carboxamide], > 7.00.
The result for `CC(C)n1cc2c(N3CC[C@@](C)(N)C3)c(NC(=O)c3ccc(=O)n(-c4c(F)cccc4F)n3)ccc2n1` [Example 220, (R)—N-(4-(3-amino-3-methylpyrrolidin-1-yl)-2-isopropyl-2H-indazol-5-yl)-1-(2,6-difluorophenyl)-6-oxo-1,6-dihydropyridazine-3-carboxamide] reads > 7.00; that for `CC(C)n1cc2c(N3CC[C@@H](CN)C3)c(NC(=O)c3ccc(=O)n(-c4c(F)cccc4F)n3)cc(F)c2n1` [Example 221, (S)-N-(4-(3-(aminomethyl)pyrrolidin-1-yl)-7-fluoro-2-isopropyl-2H-indazol-5-yl)-1-(2,6-difluorophenyl)-6-oxo-1,6-dihydropyridazine-3-carboxamide], > 7.00.
With `CC(C)n1cc2c(N3CC[C@@H](N)C3)c(NC(=O)c3ccc(=O)n(-c4c(F)cccc4F)n3)cc(F)c2n1` [Example 222, (R)-N-(4-(3-aminopyrrolidin-1-yl)-7-fluoro-2-isopropyl-2H-indazol-5-yl)-1-(2,6-difluorophenyl)-6-oxo-1,6-dihydropyridazine-3-carboxamide], the pIC50 was > 7.00.
With `CC(C)n1nc2c(F)cc(NC(=O)c3ccc(=O)n(-c4c(F)cccc4F)n3)c(N3CC[C@@H](N)C3)c2c1Cl` [Example 223, (R)-N-(4-(3-aminopyrrolidin-1-yl)-3-chloro-7-fluoro-2-isopropyl-2H-indazol-5-yl)-1-(2,6-difluorophenyl)-6-oxo-1,6-dihydropyridazine-3-carboxamide], the pIC50 is > 7.00.
In the case of `CC(C)n1cc2c(N3C[C@@H](C)[C@@H](N)C3)c(NC(=O)c3ccc(=O)n(-c4c(F)cccc4F)n3)ccc2n1` [Example 224, N-(4-((3R,4R)-3-amino-4-methylpyrrolidin-1-yl)-2-isopropyl-2H-indazol-5-yl)-1-(2,6-difluorophenyl)-6-oxo-1,6-dihydropyridazine-3-carboxamide] it was > 7.00.
Take `CC(C)n1cc2c(N3CCC[C@@H]3CN)c(NC(=O)c3ccc(=O)n(-c4c(F)cccc4F)n3)ccc2n1` [Example 225, (R)-N-(4-(2-(aminomethyl)pyrrolidin-1-yl)-2-isopropyl-2H-indazol-5-yl)-1-(2,6-difluorophenyl)-6-oxo-1,6-dihydropyridazine-3-carboxamide]: the pIC50 was > 7.00.
